Reference: ChEMBL document CHEMBL1149085, “Potential utility of histamine H3 receptor antagonist pharmacophore in antipsychotics” (Bioorg Med Chem Lett, 2009)

How the values were obtained:
[1] = target: Histamine H3 receptor (Homo sapiens, UniProt Q9Y5N1); assay: biochemical; assay type: cell-based, HEK293
Description: Displacement of [125I]iodoproxyfan from human histamine H3 receptor expressed in CHO/HEK293 cells

[2] = target: D(2) dopamine receptor (Homo sapiens, UniProt P14416); assay: biochemical; assay type: cell-based, CHO
Description: Displacement of [3H]spiperone from human dopamine D2 receptor expressed in CHO cells

[3] = target: D(1A) dopamine receptor (Homo sapiens, UniProt P21728); assay: biochemical
D(1A) dopamine receptor, sequence (P21728 whole entry): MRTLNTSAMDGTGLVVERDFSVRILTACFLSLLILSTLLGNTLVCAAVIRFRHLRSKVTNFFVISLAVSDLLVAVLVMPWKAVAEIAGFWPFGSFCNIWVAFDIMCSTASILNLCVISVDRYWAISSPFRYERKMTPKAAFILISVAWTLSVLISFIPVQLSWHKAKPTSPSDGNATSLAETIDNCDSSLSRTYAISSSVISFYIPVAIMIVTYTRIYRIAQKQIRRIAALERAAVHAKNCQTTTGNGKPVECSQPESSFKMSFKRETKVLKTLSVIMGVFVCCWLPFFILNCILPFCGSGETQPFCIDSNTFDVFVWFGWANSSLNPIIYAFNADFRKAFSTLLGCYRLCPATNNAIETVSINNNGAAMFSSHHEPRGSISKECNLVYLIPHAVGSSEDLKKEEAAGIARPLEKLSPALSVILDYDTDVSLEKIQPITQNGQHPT
Description: Displacement of [3H]SCH23390 from human dopamine D1 receptor expressed in HEK cells

[4] = target: D(3) dopamine receptor (Homo sapiens, UniProt P35462); assay: biochemical
D(3) dopamine receptor, sequence (P35462 whole entry): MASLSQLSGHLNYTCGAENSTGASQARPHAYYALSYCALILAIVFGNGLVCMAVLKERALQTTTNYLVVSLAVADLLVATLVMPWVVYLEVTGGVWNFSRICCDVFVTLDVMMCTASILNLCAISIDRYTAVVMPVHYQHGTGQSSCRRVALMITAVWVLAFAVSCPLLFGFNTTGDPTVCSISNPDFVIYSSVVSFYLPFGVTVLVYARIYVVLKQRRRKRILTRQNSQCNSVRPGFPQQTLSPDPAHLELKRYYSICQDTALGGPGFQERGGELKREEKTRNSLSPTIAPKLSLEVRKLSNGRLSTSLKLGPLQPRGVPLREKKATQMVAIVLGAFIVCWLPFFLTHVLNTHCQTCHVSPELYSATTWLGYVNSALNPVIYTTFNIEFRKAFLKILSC
Description: Displacement of [3H]spiperone from human dopamine D3 receptor expressed in CHO cells

[5] = target: D(1B) dopamine receptor (Homo sapiens, UniProt P21918); assay: biochemical
D(1B) dopamine receptor, sequence (P21918 whole entry): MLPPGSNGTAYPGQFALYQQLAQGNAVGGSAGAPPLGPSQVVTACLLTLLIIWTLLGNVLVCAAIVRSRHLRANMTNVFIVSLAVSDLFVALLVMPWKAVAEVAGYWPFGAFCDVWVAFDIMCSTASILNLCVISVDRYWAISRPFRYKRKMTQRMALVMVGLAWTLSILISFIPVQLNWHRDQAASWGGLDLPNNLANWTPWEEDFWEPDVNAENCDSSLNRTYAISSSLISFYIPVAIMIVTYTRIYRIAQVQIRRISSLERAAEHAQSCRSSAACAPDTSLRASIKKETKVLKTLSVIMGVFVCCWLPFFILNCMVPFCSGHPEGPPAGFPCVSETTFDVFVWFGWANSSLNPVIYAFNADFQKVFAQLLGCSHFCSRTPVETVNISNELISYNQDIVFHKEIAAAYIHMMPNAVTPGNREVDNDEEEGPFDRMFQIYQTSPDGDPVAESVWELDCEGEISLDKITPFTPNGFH
Description: Displacement of [3H]SCH23390 from human dopamine D5 receptor expressed in HEK cells

[6] = species: Mus musculus; assay: animal or person; assay type: functional; details: Swiss, Cerebral cortex, po, 1.5 h
Description: Antagonist activity at histamine H3 receptor in po dosed Swiss mouse cerebral cortex assessed as Ntau-methylhistamine level after 90 mins by radioimmunoassay

D(2) dopamine receptor, sequence (P14416 whole entry): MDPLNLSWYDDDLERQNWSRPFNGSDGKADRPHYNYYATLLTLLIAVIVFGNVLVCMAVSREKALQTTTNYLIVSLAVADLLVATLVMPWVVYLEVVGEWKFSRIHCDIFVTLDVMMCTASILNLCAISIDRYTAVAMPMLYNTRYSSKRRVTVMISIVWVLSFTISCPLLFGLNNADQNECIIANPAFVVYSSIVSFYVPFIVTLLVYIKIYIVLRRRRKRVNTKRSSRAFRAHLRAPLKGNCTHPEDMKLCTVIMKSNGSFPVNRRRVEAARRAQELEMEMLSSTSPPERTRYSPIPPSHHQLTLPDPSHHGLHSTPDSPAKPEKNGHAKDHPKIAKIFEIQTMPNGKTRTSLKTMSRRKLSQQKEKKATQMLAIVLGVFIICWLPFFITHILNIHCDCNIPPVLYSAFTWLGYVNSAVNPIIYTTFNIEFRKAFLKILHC
Histamine H3 receptor, sequence (Q9Y5N1 whole entry): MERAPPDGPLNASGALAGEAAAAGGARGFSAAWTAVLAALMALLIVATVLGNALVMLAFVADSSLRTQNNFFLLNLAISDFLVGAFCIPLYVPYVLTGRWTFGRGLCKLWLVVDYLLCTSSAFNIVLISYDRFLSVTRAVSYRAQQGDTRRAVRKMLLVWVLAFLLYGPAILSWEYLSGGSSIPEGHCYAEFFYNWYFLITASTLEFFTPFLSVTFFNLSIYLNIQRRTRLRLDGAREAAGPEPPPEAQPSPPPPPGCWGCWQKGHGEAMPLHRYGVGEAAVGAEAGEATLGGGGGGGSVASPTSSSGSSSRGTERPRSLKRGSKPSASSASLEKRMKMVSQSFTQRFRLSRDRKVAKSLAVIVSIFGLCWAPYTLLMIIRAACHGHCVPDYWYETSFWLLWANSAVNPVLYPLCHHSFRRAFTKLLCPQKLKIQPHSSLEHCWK

CN(CC/C=C1\c2ccccc2Sc2ccc(Cl)cc21)Cc1ccc(OCCCN2CCCCC2)cc1
Ki [1]: 1.54 nM
Ki [2]: 52 nM
Ki [3]: 248 nM
Ki [4]: 50 nM

O=C(OCCN1CCN(CCCN2c3ccccc3Sc3ccc(C(F)(F)F)cc32)CC1)c1ccc(OCCCN2CCCCC2)cc1
Ki [1]: 0.042 nM
Ki [2]: 47 nM
Ki [3]: 203 nM
Ki [5]: 265 nM
Ki [4]: 15 nM

CN(C)CC/C=C1/c2ccccc2Sc2ccc(Cl)cc21 [CHLORPROTHIXENE]
Ki [2]: 2.96 nM
Ki [5]: 9 nM
Ki [4]: 4.56 nM

CN(CCC=C1c2ccccc2CCc2ccccc21)C(=O)c1ccc(OCCCN2CCCCC2)cc1
Ki [1]: 3.5 nM
Ki [2]: > 1000 nM
Ki [3]: > 1000 nM
Ki [5]: > 1000 nM
Ki [4]: 243 nM

CN(CCC=C1c2ccccc2CCc2ccccc21)Cc1ccc(OCCCN2CCCCC2)cc1
Ki [1]: 0.25 nM
Ki [2]: 101 nM
ED50 [6]: > 10 mg/kg
Ki [3]: 305 nM
Ki [5]: 273 nM
Ki [4]: 67 nM

CN(CCCC12CCC(c3ccccc31)c1ccccc12)Cc1ccc(OCCCN2CCCCC2)cc1
Ki [1]: 0.358 nM
Ki [2]: 146 nM
Ki [3]: 203 nM
Ki [5]: 265 nM
Ki [4]: 149 nM

CN(CCCN1c2ccccc2Sc2ccc(Cl)cc21)Cc1ccc(OCCCN2CCCCC2)cc1
Ki [1]: 1.21 nM
Ki [2]: 41 nM
Ki [3]: 232 nM
Ki [5]: 153 nM
Ki [4]: 50 nM

CN(C)CCC=C1c2ccccc2CCc2ccccc21 [AMITRIPTYLINE]
Ki [1]: > 1000 nM
Ki [2]: 196 nM
Ki [5]: 170 nM
Ki [4]: 206 nM

CN(CCC=C1c2ccccc2CCc2ccccc21)C(=O)Cc1ccc(OCCCN2CCCCC2)cc1
Ki [1]: 4.9 nM
Ki [2]: 904 nM
Ki [3]: 879 nM
Ki [5]: > 1000 nM
Ki [4]: 326 nM

Clc1ccc2c(c1)N=C(N1CCN(Cc3ccc(OCCCN4CCCCC4)cc3)CC1)c1ccccc1N2
Ki [1]: 3.27 nM
Ki [2]: 285 nM
Ki [3]: 866 nM
Ki [5]: 921 nM
Ki [4]: 223 nM
